Experimental data: article PMC5756575, “In Vitro Biotransformation, Safety, and Chemopreventive Action of Novel 8-Methoxy-Purine-2,6-Dione Derivatives” (Applied Biochemistry and Biotechnology, 2017)
Where two headings read alike, the source gives them in different places.

Assays:
[1] = DPPH radical scavenging assay; assay type: biochemical; conditions: DPPH 250 μM, compound at 250 μM, 30 min, 517 nm
Procedure: The capacity of selected 8-methoxy-purine-2,6-dione derivatives to scavenge stable free radical DPPH was assessed. A blank and a triplicate of 10 different concentrations of each compound or of each positive control (gallic and ascorbic acids) were evaluated in the experiment. Aforesaid concentrations of compounds were obtained by dilution from a 1000 μM stock solution in methanol. One hundred microliters of DPPH stock solution were added to each well; later, 100 μL of the corresponding compound dilution were added. Consequently, the final concentration of DPPH radical was 250 μM, whereas the final concentrations of the tested compounds or positive controls were 500, 375, 250, 125, 62.5, 50, 37.5, 25, 12.5, and 6.25 μM. Afterwards, the 96-plate was wrapped with aluminum and stored in the dark 30 min prior to the spectrophotometric measurement at a 517-nm wavelength. The obtained absorbances were used to calculate the percentage of radical scavenged by the action of a compound or of a positive control at each concentration using a formula 100 × (A 0 − A m)/A 0. In this equation A m is the average absorbance of the three triplicates measured at the corresponding concentration and A 0 is the average absorbance of DPPH radical in the absence of the tested substance. Knowing inhibition data at the different concentrations, IC50 was calculated when applicable.

[2] = system: mice; design: method as in PMID 25443727, PMID 25560569; conditions: writhing syndrome test in mice; cited from earlier work
[3] = system: mice; design: method as in PMID 25443727, PMID 25560569; conditions: formalin test in mice; cited from earlier work

## COc1nc2c(c(=O)n(C)c(=O)n2C)n1CCCC(=O)NCc1ccccc1 [Compound 3, N-benzyl-4-(8-methoxy-1,3-dimethyl-2,6-dioxo-purin-7-yl)butanamide]
[1]
  maximum radical scavenging percentage observed: 6.56%

## COc1nc2c(c(=O)n(C)c(=O)n2C)n1CCCC(=O)N1CCN(c2ccccc2)CC1 [Compound 4, 8-methoxy-1,3-dimethyl-7-[4-oxo-4-(4-phenylpiperazin-1-yl)butyl]purine-2,6-dione]
[2]
  fold higher activity than acetylsalicylic acid: 23 fold
[3]
  fold higher activity than acetylsalicylic acid: 36 fold
